Results taken from ChEMBL document CHEMBL1142112, “Antiproliferative xanthones of Terminalia calcicola from the Madagascar rain forest” (J Nat Prod, 2007).

Test system: A2780
Assay: Antiproliferative activity against human A2780 cells
Format: cell-based

IC50 [µM]	Structure (SMILES)
8.1	CC(C)=CCc1c(O)c(O)cc2oc3c4c(cc(O)c3c(=O)c12)OC(C)(C)C=C4
40.6	CC(C)=CCc1c(O)ccc2oc3c(O)c4c(c(O)c3c(=O)c12)C=CC(C)(C)O4 [TERMICALCICOLANONE A]
